pIC50, pKi: −log10 of the molar value.
Biological target: GCN2 kinase (Homo sapiens, UniProt Q9P2K8)
Assay: GCN2 enzyme inhibition assay (Transcreener ADP2 fluorescence polarization)
Assay type: biochemical
Conditions: 280 μM ATP
Summary of the method: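 Kinase activity is followed as ADP formation, measured by fluorescence polarization, using 4 nM enzyme with 280 μM ATP and 200 μM (RS)7 peptide at pH 7.5 and 25 °C for 1 h. Values come from a non-linear tight-binding fit.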

[1] = Enzyme activity for compounds of Formula IV, Ki(app), 25° C.

Chain of GCN2 kinase (Q9P2K8 whole entry): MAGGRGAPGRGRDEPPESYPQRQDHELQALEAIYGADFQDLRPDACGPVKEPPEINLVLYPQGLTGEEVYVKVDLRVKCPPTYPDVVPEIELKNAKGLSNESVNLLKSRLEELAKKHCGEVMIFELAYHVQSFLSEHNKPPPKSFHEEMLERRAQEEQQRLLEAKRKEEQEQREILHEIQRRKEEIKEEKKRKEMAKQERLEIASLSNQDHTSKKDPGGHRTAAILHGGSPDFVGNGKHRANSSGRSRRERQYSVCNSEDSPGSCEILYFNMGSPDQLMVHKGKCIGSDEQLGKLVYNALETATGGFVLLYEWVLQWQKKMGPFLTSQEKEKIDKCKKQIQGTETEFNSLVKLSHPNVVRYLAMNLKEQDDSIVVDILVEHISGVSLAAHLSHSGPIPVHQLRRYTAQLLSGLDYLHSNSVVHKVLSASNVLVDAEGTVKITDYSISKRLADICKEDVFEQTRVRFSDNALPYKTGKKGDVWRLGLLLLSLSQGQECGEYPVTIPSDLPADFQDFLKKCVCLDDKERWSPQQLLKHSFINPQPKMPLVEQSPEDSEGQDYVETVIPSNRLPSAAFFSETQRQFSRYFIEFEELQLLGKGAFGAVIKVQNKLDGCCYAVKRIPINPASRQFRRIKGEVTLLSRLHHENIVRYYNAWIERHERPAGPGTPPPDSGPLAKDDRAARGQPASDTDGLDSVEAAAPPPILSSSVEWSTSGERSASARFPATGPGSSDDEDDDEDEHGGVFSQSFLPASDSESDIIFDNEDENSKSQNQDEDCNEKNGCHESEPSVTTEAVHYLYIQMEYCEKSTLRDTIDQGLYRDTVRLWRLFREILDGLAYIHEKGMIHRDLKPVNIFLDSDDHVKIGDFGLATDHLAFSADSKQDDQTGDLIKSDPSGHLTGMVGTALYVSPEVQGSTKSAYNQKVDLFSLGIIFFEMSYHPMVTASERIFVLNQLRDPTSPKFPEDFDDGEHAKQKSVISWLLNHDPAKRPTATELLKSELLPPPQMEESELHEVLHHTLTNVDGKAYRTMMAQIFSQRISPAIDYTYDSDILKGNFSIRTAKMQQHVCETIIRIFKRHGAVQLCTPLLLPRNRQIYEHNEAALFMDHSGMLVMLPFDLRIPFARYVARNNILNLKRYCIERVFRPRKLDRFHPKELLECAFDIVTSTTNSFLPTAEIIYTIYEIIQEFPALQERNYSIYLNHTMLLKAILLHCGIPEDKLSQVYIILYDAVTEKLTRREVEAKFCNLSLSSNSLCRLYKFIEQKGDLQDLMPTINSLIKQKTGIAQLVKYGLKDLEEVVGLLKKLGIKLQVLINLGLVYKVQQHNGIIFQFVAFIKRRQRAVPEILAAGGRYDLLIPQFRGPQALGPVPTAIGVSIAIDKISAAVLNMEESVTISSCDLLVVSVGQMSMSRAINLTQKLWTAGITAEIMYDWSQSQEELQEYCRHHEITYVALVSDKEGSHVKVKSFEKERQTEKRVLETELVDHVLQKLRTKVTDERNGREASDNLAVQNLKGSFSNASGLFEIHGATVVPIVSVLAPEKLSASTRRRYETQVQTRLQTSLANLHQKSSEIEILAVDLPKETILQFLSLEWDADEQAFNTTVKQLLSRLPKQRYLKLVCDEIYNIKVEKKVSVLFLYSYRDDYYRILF

Compound	pKi [1]	also measured
CC1CN(c2nc(-c3cnc4cnc(C(F)(F)F)cn34)ncc2F)CC(c2cn[nH]c2)O1 (single isomer, unassigned) [IV-335, 4-(5-Fluoro-2-(6-(trifluoromethyl)imidazo[1,2-a]pyrazin-3-yl)pyrimidin-4-yl)-2-methyl-6-(1H-pyrazol-4-yl)morpholine]	7.00 to 8.00	–
CS(=N)(=O)CC1CCCN(c2ccnc(-c3cnc4cnc(C(F)F)cn34)n2)C1 (single isomer, unassigned) [IV-338, ((1-(2-(6-(Difluoromethyl)imidazo[1,2-a]pyrazin-3-yl)pyrimidin-4-yl)piperidin-3-yl)methyl)(imino)(methyl)-λ^6-sulfanone]	6.00 to 7.00	–
CS(=N)(=O)CC1CCCN(c2ccnc(-c3cnc4cnc(C(F)F)cn34)n2)C1 (single isomer, unassigned) [IV-339, ((1-(2-(6-(Difluoromethyl)imidazo[1,2-a]pyrazin-3-yl)pyrimidin-4-yl)piperidin-3-yl)methyl)(imino)(methyl)-λ^6-sulfanone]	6.00 to 7.00	–
CC1CC(CS(C)(=N)=O)C(C)N(c2ccnc(-c3cnc4cnc(C(F)F)cn34)n2)C1 (single isomer, unassigned) [IV-367, ((1-(2-(6-(Difluoromethyl)imidazo[1,2-a]pyrazin-3-yl)pyrimidin-4-yl)-2,5-dimethylpiperidin-3-yl)methyl)(imino)(methyl)-λ^6-sulfanone]	6.00 to 7.00	–
Cc1n[nH]c(C)c1C1CCCN(c2ccnc(-c3cnc4cnc(C(F)(F)F)cn34)n2)C1 (single isomer, unassigned) [IV-476, 3-(4-(3-(3,5-Dimethyl-1H-pyrazol-4-yl)piperidin-1-yl)pyrimidin-2-yl)-6-(trifluoromethyl)imidazo[1,2-a]pyrazine]	> 8.00	–
Cc1n[nH]c(C)c1C1CCCN(c2ccnc(-c3cnc4cnc(C(F)(F)F)cn34)n2)C1 (single isomer, unassigned) [IV-477, 3-(4-(3-(3,5-Dimethyl-1H-pyrazol-4-yl)piperidin-1-yl)pyrimidin-2-yl)-6-(trifluoromethyl)imidazo[1,2-a]pyrazine]	7.00 to 8.00	–
CC1C(C(N)=O)CCCN1c1ccnc(-c2cnc3cnc(C(F)(F)F)cn23)n1 (single isomer, unassigned) [IV-498, 2-Methyl-1-(2-(6-(trifluoromethyl)imidazo[1,2-a]pyrazin-3-yl)pyrimidin-4-yl)piperidine-3-carboxamide]	6.00 to 7.00	–
N#C[C@@H]1CCN(c2ccnc(-c3cnc4cnc(C(F)(F)F)cn34)n2)C1 (single isomer, unassigned) [IV-521]	6.00 to 7.00	–
FC(F)(F)c1cn2c(-c3nccc(N4CCC(c5cn[nH]c5)C4)n3)cnc2cn1 (single isomer, unassigned) [IV-541, 3-(4-(3-(1H-Pyrazol-4-yl)pyrrolidin-1-yl)pyrimidin-2-yl)-6-(trifluoromethyl)imidazo[1,2-a]pyrazine]	7.00 to 8.00	–
FC(F)(F)c1cn2c(-c3nccc(N4CCCC(C5CCOC5)C4)n3)cnc2cn1 (single isomer, unassigned) [IV-543, 3-(4-(3-(Tetrahydrofuran-3-yl)piperidin-1-yl)pyrimidin-2-yl)-6-(trifluoromethyl)imidazo[1,2-a]pyrazine]	6.00 to 7.00	–
FC(F)(F)c1cn2c(-c3nccc(N4CCCC(C5CCOC5)C4)n3)cnc2cn1 (single isomer, unassigned) [IV-544, 3-(4-(3-(Tetrahydrofuran-3-yl)piperidin-1-yl)pyrimidin-2-yl)-6-(trifluoromethyl)imidazo[1,2-a]pyrazine]	6.00 to 7.00	–
CN1C(=O)CO[C@H]2CN(c3ccnc(-c4cnc5cnc(C(F)(F)F)cn45)n3)C[C@@H]21 (single isomer, unassigned) [IV-551]	6.00 to 7.00	–
C[C@@H]1CN(c2ccnc(-c3cnc4sc(C(F)F)cn34)n2)C[C@H](CNS(C)(=O)=O)C1(F)F (stereo in doubt) [Compound V-2, N-((-1-(2-(2-(difluoromethyl)imidazo[2,1-b]thiazol-5-yl)pyrimidin-4-yl)-4,4-difluoro-5-methylpiperidin-3-yl)methyl)methanesulfonamide]	–	pKi (compounds of Formula V, 4 nM GCN2 kinase): 6.00 to 7.00
C[C@@H]1[C@H](CNS(C)(=O)=O)CCCN1c1cc(-c2cnc3ccc(C(F)F)nn23)ncn1 (stereo in doubt) [II-754, N-(((2R,3S)-1-(6-(6-(difluoromethyl)imidazo[1,2-b]pyridazin-3-yl)pyrimidin-4-yl)-2-methylpiperidin-3-yl)methyl)methanesulfonamide]	–	pIC50 (compounds of Formula II, 4 nM GCN2 kinase): < 6.00

Continued, in another order:

pKi [1]	Compound	also measured
6.00 to 7.00	CC1NC(c2cn[nH]c2)C(C)N(c2ccnc(-c3cnc4cnc(C(F)(F)F)cn34)n2)C1C (single isomer, unassigned) [IV-336, 6-(Trifluoromethyl)-3-(4-(2,3,6-trimethyl-5-(1H-pyrazol-4-yl)piperazin-1-yl)pyrimidin-2-yl)imidazo[1,2-a]pyrazine]	–
> 8.00	CC1NC(c2cn[nH]c2)C(C)N(c2ccnc(-c3cnc4cnc(C(F)(F)F)cn34)n2)C1C (single isomer, unassigned) [IV-337, 6-(Trifluoromethyl)-3-(4-(2,3,6-trimethyl-5-(1H-pyrazol-4-yl)piperazin-1-yl)pyrimidin-2-yl)imidazo[1,2-a]pyrazine]	–
6.00 to 7.00	CC1CN(c2nccc(-c3cnc4cnc(C(F)(F)F)cn34)n2)C(C)C(c2cn[nH]c2)N1 (single isomer, unassigned) [IV-370, 3-(2-(2,5-Dimethyl-3-(1H-pyrazol-4-yl)piperazin-1-yl)pyrimidin-4-yl)-6-(trifluoromethyl)imidazo[1,2-a]pyrazine]	–
7.00 to 8.00	CC1CN(c2ccnc(-c3cnc4cnc(C(F)(F)F)cn34)n2)CC(c2cn[nH]c2C(F)(F)F)N1 (single isomer, unassigned) [IV-475, 3-(4-(3-Methyl-5-(5-(trifluoromethyl)-1H-pyrazol-4-yl)piperazin-1-yl)pyrimidin-2-yl)-6-(trifluoromethyl)imidazo[1,2-a]pyrazine]	–
7.00 to 8.00	CC1CC(C(N)=O)C(C)N(c2ccnc(-c3cnc4cnc(C(F)(F)F)cn34)n2)C1 (single isomer, unassigned) [IV-481, 2,5-Dimethyl-1-(2-(6-(trifluoromethyl)imidazo[1,2-a]pyrazin-3-yl)pyrimidin-4-yl)piperidine-3-carboxamide]	–
6.00 to 7.00	CC1CC(C(N)=O)C(C)N(c2ccnc(-c3cnc4cnc(C(F)(F)F)cn34)n2)C1 (single isomer, unassigned) [IV-500, 2,5-Dimethyl-1-(2-(6-(trifluoromethyl)imidazo[1,2-a]pyrazin-3-yl)pyrimidin-4-yl)piperidine-3-carboxamide]	–
6.00 to 7.00	CC1CN(c2ccnc(-c3cnc4cnc(C(F)(F)F)cn34)n2)C(C)C(c2cnc[nH]2)N1 (single isomer, unassigned) [IV-549, 3-(4-(3-(1H-Imidazol-5-yl)-2,5-dimethylpiperazin-1-yl)pyrimidin-2-yl)-6-(trifluoromethyl)imidazo[1,2-a]pyrazine]	–
7.00 to 8.00	C[C@H]1CCCCN1c1ccnc(-c2cnc3cnc(C(F)(F)F)cn23)n1 (single isomer, unassigned) [IV-597]	–
6.00 to 7.00	CC1CN(c2ccnc(-c3cnc4cnc(C(F)(F)F)cn34)n2)C(C)C(c2c[nH]c(C(F)(F)F)n2)N1 (single isomer, unassigned) [IV-674, 3-(4-(2,5-Dimethyl-3-(2-(trifluoromethyl)-1H-imidazol-4-yl)piperazin-1-yl)pyrimidin-2-yl)-6-(trifluoromethyl)imidazo[1,2-a]pyrazine]	–

— patent US10988477B2 (Merck Patent GmbH, priority 2018, dated 2021)
